Legend:
Test in all cases: KAM-matrix competition in K562 lysate;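 for 0.001 uM KAM: median log10 fold change of treatment over DMSO control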;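 for 0.01 uM KAM: median log10 fold change of treatment over DMSO control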;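 for 0.1 uM KAM: median log10 fold change of treatment over DMSO control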;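 for 1 uM KAM: median log10 fold change of treatment over DMSO control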;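 for 10 uM KAM: median log10 fold change of treatment over DMSO control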
Assay type in all cases: binding
CAMK2D = target: T1, CAMK2D (Homo sapiens, UniProt Q13557);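 for 0.001 uM KAM: median log10 fold change of treatment over DMSO control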;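 for 0.01 uM KAM: median log10 fold change of treatment over DMSO control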;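 for 0.1 uM KAM: median log10 fold change of treatment over DMSO control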;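 for 1 uM KAM: median log10 fold change of treatment over DMSO control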;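 for 10 uM KAM: median log10 fold change of treatment over DMSO control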
T1 construct: endogenous in cells; host or cells: K562
T1 sequence (Q13557 whole entry): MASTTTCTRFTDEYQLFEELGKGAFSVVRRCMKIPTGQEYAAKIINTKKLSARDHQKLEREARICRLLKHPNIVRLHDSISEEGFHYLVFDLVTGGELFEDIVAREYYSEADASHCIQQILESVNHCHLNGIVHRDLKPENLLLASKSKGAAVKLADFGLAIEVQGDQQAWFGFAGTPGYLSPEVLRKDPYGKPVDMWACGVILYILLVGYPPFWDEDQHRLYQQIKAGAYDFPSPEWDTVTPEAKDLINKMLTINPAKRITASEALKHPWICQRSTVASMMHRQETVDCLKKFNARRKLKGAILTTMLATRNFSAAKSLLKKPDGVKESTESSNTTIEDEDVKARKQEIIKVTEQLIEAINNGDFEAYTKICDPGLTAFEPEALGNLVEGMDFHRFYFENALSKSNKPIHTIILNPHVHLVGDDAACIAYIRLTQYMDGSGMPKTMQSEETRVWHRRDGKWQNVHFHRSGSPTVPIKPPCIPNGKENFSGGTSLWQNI
Description: (§1) Supplement 12953_2017_125_MOESM1_ESM.zip/MS_Supp Info.xlsx, sheet "KAM" | column: 10 uM KAM; 1 uM KAM; 0.1 uM KAM; 0.01 uM KAM; 0.001 uM KAM; RB50

MAST2 = target: T2, MAST2 (Homo sapiens, UniProt Q6P0Q8);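 for 0.001 uM KAM: median log10 fold change of treatment over DMSO control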;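 for 0.01 uM KAM: median log10 fold change of treatment over DMSO control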;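 for 0.1 uM KAM: median log10 fold change of treatment over DMSO control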;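 for 1 uM KAM: median log10 fold change of treatment over DMSO control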;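 for 10 uM KAM: median log10 fold change of treatment over DMSO control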
T2 construct: endogenous in cells; host or cells: K562 cells (combined S0.8 and P0.8 lysate)
Description: as §1

PAK2 = target: T3, PAK2 (Homo sapiens, UniProt Q13177);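 for 0.001 uM KAM: median log10 fold change of treatment over DMSO control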;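 for 0.01 uM KAM: median log10 fold change of treatment over DMSO control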;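 for 0.1 uM KAM: median log10 fold change of treatment over DMSO control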;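 for 1 uM KAM: median log10 fold change of treatment over DMSO control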;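 for 10 uM KAM: median log10 fold change of treatment over DMSO control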
T3 construct: endogenous in cells; host or cells: K562
T3 sequence (Q13177 whole entry): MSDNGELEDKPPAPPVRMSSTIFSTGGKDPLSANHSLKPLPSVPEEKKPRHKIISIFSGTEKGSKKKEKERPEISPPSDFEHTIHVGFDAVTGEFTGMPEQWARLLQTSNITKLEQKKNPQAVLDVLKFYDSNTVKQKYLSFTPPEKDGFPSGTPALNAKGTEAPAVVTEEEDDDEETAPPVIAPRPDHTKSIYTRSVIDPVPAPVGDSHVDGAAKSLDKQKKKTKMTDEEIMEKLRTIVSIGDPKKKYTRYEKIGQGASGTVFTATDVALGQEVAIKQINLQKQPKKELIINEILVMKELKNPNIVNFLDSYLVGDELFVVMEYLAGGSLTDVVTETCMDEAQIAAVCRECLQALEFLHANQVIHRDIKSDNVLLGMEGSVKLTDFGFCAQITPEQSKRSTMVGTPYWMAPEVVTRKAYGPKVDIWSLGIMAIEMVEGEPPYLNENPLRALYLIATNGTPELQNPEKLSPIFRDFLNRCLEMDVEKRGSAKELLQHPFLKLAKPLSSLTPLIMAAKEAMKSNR
Description: as §1

PRKACG = target: T4, PRKACG (Homo sapiens, UniProt P22612);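 for 0.001 uM KAM: median log10 fold change of treatment over DMSO control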;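 for 0.01 uM KAM: median log10 fold change of treatment over DMSO control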;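 for 0.1 uM KAM: median log10 fold change of treatment over DMSO control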;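 for 1 uM KAM: median log10 fold change of treatment over DMSO control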;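 for 10 uM KAM: median log10 fold change of treatment over DMSO control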
T4 construct: endogenous in cells; host or cells: K562
T4 sequence (P22612 whole entry): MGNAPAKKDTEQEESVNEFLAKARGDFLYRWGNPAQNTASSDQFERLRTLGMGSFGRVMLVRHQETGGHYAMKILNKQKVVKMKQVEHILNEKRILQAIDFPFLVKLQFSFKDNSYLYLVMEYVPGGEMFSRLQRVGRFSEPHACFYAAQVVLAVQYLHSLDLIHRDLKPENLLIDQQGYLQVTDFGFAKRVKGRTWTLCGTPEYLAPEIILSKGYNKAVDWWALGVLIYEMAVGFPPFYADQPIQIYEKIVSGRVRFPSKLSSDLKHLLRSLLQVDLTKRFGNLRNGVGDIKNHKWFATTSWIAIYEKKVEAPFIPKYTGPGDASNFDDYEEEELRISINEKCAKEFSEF
Description: as §1

PRKCA = target: T5, PRKCA (Homo sapiens, UniProt P17252)
T5 construct: endogenous in cells; host or cells: K562 lysate
Description: as §1

RIPK1 = target: T6, RIPK1 (Homo sapiens, UniProt Q13546);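 for 0.001 uM KAM: median log10 fold change of treatment over DMSO control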;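 for 0.01 uM KAM: median log10 fold change of treatment over DMSO control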;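 for 0.1 uM KAM: median log10 fold change of treatment over DMSO control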;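 for 1 uM KAM: median log10 fold change of treatment over DMSO control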;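 for 10 uM KAM: median log10 fold change of treatment over DMSO control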
T6 construct: endogenous in cells; host or cells: K562
T6 sequence (Q13546 1-671): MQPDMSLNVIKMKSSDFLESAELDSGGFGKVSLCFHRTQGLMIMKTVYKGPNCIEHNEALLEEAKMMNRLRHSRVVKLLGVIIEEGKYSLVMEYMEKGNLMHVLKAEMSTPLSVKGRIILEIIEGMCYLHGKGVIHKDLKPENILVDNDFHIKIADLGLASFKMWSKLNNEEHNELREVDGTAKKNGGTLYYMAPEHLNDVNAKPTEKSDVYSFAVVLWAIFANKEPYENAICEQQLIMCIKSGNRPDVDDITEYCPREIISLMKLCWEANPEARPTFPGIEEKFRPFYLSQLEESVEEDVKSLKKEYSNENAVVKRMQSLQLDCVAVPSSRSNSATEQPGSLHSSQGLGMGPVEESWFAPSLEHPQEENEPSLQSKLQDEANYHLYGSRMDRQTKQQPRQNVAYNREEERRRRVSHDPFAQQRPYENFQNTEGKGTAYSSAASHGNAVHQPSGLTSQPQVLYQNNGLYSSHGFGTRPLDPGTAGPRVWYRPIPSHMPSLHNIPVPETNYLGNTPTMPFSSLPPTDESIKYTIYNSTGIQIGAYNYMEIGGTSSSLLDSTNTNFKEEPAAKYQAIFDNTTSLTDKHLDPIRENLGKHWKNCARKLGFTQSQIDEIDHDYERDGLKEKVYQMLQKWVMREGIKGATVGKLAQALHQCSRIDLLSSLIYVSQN
Description: as §1

RPS6KB1 = target: T7, RPS6KB1 (Homo sapiens, UniProt P23443);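 for 0.001 uM KAM: median log10 fold change of treatment over DMSO control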;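 for 0.01 uM KAM: median log10 fold change of treatment over DMSO control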;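 for 0.1 uM KAM: median log10 fold change of treatment over DMSO control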;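 for 1 uM KAM: median log10 fold change of treatment over DMSO control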;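 for 10 uM KAM: median log10 fold change of treatment over DMSO control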
T7 construct: endogenous in cells; host or cells: K562
T7 sequence (P23443 whole entry): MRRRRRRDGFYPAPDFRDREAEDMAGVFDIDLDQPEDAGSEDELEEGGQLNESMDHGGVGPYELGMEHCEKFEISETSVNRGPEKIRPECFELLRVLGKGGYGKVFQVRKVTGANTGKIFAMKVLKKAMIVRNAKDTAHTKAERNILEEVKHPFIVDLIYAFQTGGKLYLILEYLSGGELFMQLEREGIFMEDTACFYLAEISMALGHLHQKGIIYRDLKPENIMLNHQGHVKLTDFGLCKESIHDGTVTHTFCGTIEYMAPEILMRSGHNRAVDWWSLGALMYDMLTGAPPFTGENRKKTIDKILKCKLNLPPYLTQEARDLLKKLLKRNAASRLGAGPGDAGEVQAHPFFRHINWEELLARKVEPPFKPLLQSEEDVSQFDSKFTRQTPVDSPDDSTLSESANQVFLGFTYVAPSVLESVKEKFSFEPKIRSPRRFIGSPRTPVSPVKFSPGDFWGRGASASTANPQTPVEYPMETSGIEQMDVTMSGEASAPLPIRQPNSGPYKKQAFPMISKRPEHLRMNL
Description: as §1

STK17B = target: T8, STK17B (Homo sapiens, UniProt O94768)
T8 construct: endogenous in cells; host or cells: K562 cells (lysate)
T8 sequence (O94768 1-372): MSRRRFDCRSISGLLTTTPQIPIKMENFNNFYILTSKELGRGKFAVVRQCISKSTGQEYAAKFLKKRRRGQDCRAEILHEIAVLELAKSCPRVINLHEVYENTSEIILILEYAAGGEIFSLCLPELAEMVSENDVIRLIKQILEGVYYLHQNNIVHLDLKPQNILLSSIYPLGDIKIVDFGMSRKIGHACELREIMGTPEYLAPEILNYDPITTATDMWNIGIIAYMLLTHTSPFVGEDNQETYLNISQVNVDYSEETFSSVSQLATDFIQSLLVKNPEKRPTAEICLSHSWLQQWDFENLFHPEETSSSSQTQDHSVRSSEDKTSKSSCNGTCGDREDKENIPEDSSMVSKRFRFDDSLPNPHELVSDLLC
Description: as §1

STK26 = target: T9, STK26 (Homo sapiens, UniProt Q9P289)
T9 construct: endogenous in cells; host or cells: K562
T9 sequence (Q9P289 whole entry): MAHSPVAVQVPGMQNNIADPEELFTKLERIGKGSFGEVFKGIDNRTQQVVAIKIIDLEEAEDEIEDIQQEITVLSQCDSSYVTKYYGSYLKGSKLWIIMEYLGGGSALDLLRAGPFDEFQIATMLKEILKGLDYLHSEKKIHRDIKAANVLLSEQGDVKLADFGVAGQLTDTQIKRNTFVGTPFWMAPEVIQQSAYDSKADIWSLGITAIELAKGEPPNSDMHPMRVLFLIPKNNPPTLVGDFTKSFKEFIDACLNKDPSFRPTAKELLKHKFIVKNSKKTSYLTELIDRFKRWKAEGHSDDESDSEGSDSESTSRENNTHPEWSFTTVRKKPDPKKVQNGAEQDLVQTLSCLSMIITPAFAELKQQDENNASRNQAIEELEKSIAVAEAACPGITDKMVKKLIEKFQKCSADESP
Description: as §1

TNIK = target: T10, TNIK (Homo sapiens, UniProt Q9UKE5)
T10 construct: K562 cell pellets were thawed on ice and resuspended in cold Lysis buffer; endogenous in cells; host or cells: K562
T10 sequence (Q9UKE5 whole entry): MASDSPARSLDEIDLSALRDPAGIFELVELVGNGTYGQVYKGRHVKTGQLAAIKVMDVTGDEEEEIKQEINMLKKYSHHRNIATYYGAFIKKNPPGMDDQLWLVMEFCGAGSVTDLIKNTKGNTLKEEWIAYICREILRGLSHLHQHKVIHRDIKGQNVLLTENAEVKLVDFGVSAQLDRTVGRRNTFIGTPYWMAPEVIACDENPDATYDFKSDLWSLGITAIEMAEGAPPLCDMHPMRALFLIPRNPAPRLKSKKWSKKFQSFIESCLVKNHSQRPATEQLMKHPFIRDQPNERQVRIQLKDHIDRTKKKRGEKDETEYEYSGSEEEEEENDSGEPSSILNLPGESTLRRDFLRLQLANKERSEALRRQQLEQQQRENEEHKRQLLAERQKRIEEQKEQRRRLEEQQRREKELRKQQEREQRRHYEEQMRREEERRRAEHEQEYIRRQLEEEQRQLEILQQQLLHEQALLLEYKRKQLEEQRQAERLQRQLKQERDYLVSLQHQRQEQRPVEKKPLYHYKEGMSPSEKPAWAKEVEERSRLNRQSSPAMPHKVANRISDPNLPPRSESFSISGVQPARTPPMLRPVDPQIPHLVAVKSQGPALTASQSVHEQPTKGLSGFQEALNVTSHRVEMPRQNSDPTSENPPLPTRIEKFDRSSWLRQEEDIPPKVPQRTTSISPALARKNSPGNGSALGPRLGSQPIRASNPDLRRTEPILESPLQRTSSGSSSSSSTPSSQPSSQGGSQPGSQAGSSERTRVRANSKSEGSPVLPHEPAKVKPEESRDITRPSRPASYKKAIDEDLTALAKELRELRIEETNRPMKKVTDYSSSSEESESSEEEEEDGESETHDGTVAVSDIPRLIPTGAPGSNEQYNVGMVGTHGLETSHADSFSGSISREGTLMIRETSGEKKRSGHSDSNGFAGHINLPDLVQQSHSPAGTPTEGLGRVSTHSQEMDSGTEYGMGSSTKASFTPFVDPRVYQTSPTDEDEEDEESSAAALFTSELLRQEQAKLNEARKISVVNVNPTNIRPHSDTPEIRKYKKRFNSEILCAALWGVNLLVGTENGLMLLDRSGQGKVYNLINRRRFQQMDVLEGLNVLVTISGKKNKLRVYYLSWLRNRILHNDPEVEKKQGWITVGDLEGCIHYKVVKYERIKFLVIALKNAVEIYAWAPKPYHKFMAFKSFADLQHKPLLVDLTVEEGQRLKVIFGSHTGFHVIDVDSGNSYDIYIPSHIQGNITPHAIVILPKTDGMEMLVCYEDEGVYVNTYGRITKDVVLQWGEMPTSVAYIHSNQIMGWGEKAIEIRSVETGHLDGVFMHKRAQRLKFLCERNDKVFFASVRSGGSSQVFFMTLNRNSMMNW
Description: as §1

TTN = target: T11, TTN (Homo sapiens, UniProt Q8WZ42);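 for 0.001 uM KAM: median log10 fold change of treatment over DMSO control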;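 for 0.01 uM KAM: median log10 fold change of treatment over DMSO control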;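 for 0.1 uM KAM: median log10 fold change of treatment over DMSO control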;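 for 1 uM KAM: median log10 fold change of treatment over DMSO control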;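 for 10 uM KAM: median log10 fold change of treatment over DMSO control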
T11 construct: endogenous in cells; host or cells: K562
Description: as §1

WEE1 = target: T12, WEE1 (Homo sapiens, UniProt P30291)
T12 construct: endogenous in cells; host or cells: K562
T12 sequence (P30291 whole entry): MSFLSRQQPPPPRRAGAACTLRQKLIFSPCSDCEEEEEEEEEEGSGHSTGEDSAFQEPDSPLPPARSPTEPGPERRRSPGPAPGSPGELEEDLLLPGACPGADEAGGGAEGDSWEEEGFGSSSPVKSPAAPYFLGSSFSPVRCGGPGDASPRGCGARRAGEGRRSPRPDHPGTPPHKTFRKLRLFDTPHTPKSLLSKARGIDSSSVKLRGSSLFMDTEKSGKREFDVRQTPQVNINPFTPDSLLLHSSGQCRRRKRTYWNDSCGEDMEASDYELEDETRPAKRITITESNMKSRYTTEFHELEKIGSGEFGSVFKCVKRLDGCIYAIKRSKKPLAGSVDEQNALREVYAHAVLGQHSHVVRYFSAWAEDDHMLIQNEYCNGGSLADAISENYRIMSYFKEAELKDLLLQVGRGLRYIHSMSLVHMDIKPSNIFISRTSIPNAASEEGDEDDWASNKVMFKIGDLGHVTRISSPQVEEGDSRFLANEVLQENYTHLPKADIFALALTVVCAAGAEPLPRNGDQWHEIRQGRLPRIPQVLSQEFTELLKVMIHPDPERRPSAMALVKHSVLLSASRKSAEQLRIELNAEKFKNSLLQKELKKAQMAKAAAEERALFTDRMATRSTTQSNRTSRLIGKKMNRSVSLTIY
Description: as §1

[1] = KAM 0.001-10 uM, read-out: RB50 (the source's name)
[2] = read-out: RB50 (the source's name)

N#CCc1ccc(Nc2nc(NCCCN)cc(Nc3cc(C4CC4)[nH]n3)n2)cc1 [KAM] was tested, and the IC50 (CAMK2D; [1]) was greater than 10 µM, the “0.001 uM KAM” value (CAMK2D; relative to 0 uM KAM = 0) was -0.03504 and the “0.01 uM KAM” value (CAMK2D; relative to 0 uM KAM = 0) was 0.05262. For the same compound, the “0.1 uM KAM” value (CAMK2D; relative to 0 uM KAM = 0) was 0.01424, the “1 uM KAM” value (CAMK2D; relative to 0 uM KAM = 0) was -0.07545 and the “10 uM KAM” value (CAMK2D; relative to 0 uM KAM = 0) was -0.201. For the same compound, the IC50 (MAST2; [1]) was greater than 10 µM, the “0.001 uM KAM” value (MAST2; relative to 0 uM KAM = 0) was -0.0424 and the “0.01 uM KAM” value (MAST2; relative to 0 uM KAM = 0) was 0.0396. For the same compound, the “0.1 uM KAM” value (MAST2; relative to 0 uM KAM = 0) was -0.03782, the “1 uM KAM” value (MAST2; relative to 0 uM KAM = 0) was -0.1315 and the “10 uM KAM” value (MAST2; relative to 0 uM KAM = 0) was -0.1411. The IC50 (PAK2; [1]) was greater than 10 µM, the “0.001 uM KAM” value (PAK2; relative to 0 uM KAM = 0) was 0.07363 and the “0.01 uM KAM” value (PAK2; relative to 0 uM KAM = 0) was 0.03748. The “0.1 uM KAM” value (PAK2; relative to 0 uM KAM = 0) was 0.116, the “1 uM KAM” value (PAK2; relative to 0 uM KAM = 0) was 0.1461 and the “10 uM KAM” value (PAK2; relative to 0 uM KAM = 0) was 0.07777. The IC50 (PRKACG; [1]) was greater than 10 µM, the “0.001 uM KAM” value (PRKACG; relative to 0 uM KAM = 0) was -0.03855 and the “0.01 uM KAM” value (PRKACG; relative to 0 uM KAM = 0) was 0.1471. The “0.1 uM KAM” value (PRKACG; relative to 0 uM KAM = 0) was 0.178, the “1 uM KAM” value (PRKACG; relative to 0 uM KAM = 0) was 0.2462 and the “10 uM KAM” value (PRKACG; relative to 0 uM KAM = 0) was 0.202. The “median Log10 fold change” value (PRKCA; 0.001 uM KAM) was -0.02328, the “median Log10 fold change” value (PRKCA; 0.01 uM KAM) was -0.03535 and the “median Log10 fold change” value (PRKCA; 0.1 uM KAM) was -0.1377. The “median Log10 fold change” value (PRKCA; 1 uM KAM) was -0.1636, the “median Log10 fold change” value (PRKCA; 10 uM KAM) was -0.4501 and the IC50 (PRKCA; [2]) was 3.16 µM. For the same compound, the IC50 (RIPK1; [1]) was greater than 10 µM, the “0.001 uM KAM” value (RIPK1; relative to 0 uM KAM = 0) was -0.02132 and the “0.01 uM KAM” value (RIPK1; relative to 0 uM KAM = 0) was 0.0003889. For the same compound, the “0.1 uM KAM” value (RIPK1; relative to 0 uM KAM = 0) was -0.08047, the “1 uM KAM” value (RIPK1; relative to 0 uM KAM = 0) was -0.1016 and the “10 uM KAM” value (RIPK1; relative to 0 uM KAM = 0) was -0.1828. For the same compound, the IC50 (RPS6KB1; [1]) was greater than 10 µM, the “0.001 uM KAM” value (RPS6KB1; relative to 0 uM KAM = 0) was 0.05992 and the “0.01 uM KAM” value (RPS6KB1; relative to 0 uM KAM = 0) was 0.07406. The “0.1 uM KAM” value (RPS6KB1; relative to 0 uM KAM = 0) was 0.2008, the “1 uM KAM” value (RPS6KB1; relative to 0 uM KAM = 0) was 0.1222 and the “10 uM KAM” value (RPS6KB1; relative to 0 uM KAM = 0) was 0.1654. For the same compound, the “median Log10 fold change” value (STK17B; 0.001 uM KAM) was 0.02659, the “median Log10 fold change” value (STK17B; 0.01 uM KAM) was 0.008023 and the “median Log10 fold change” value (STK17B; 0.1 uM KAM) was -0.1097. For the same compound, the “median Log10 fold change” value (STK17B; 1 uM KAM) was -0.3588, the “median Log10 fold change” value (STK17B; 10 uM KAM) was -0.5971 and the IC50 (STK17B; [2]) was 0.799 µM. The “median Log10 fold change” value (STK26; 0.001 uM KAM) was -0.05178, the “median Log10 fold change” value (STK26; 0.01 uM KAM) was -0.01072 and the “median Log10 fold change” value (STK26; 0.1 uM KAM) was -0.2654. The “median Log10 fold change” value (STK26; 1 uM KAM) was -0.4176, the “median Log10 fold change” value (STK26; 10 uM KAM) was -0.5788 and the IC50 (STK26; [2]) was 0.249 µM. For the same compound, the “median Log10 fold change” value (TNIK; 0.001 uM KAM) was -0.02112, the “median Log10 fold change” value (TNIK; 0.01 uM KAM) was -0.02269 and the “median Log10 fold change” value (TNIK; 0.1 uM KAM) was -0.2334. For the same compound, the “median Log10 fold change” value (TNIK; 1 uM KAM) was -0.3546, the “median Log10 fold change” value (TNIK; 10 uM KAM) was -0.3559 and the IC50 (TNIK; [2]) was 0.646 µM. For the same compound, the IC50 (TTN; [1]) was greater than 10 µM, the “0.001 uM KAM” value (TTN; relative to 0 uM KAM = 0) was -0.03178 and the “0.01 uM KAM” value (TTN; relative to 0 uM KAM = 0) was 0.01596. For the same compound, the “0.1 uM KAM” value (TTN; relative to 0 uM KAM = 0) was -0.008464, the “1 uM KAM” value (TTN; relative to 0 uM KAM = 0) was 0.03427 and the “10 uM KAM” value (TTN; relative to 0 uM KAM = 0) was 0.01084. For the same compound, the “median Log10 fold change” value (WEE1; 0.001 uM KAM) was -0.01698, the “median Log10 fold change” value (WEE1; 0.01 uM KAM) was -0.006292 and the “median Log10 fold change” value (WEE1; 0.1 uM KAM) was -0.1327. The “median Log10 fold change” value (WEE1; 1 uM KAM) was -0.2838, the “median Log10 fold change” value (WEE1; 10 uM KAM) was -0.4489 and the IC50 (WEE1; [2]) was 1.32 µM.

— publication PMC5513037, “Examining the influence of specificity ligands and ATP-competitive ligands on the overall effectiveness of bivalent kinase inhibitors” (Proteome Science, 2017)
